Measurements from patent US9730906B2, “α-derivatives of cis-monounsaturated fatty acids for use as medicines” (UNIVERSITAT DE LES ILLES BALEARS, priority 2008, dated 2017).

Experiments:
[1] = tested on: human brain cancer (SF767), human lung cancer cells (A549), human pancreas cancer cells (BXPC3); test: Na-OHOD alone and combined with anti-tumour pharmaceuticals in immune-deprived mice with human tumours; format: in vivo; details: Na-OHOD 600 mg/kg
Protocol: FIG. 8A. Effect of Na-OHOD (sodium salt of OHOD) and combinations with various pharmaceuticals: temozolomide (TMZ), erlotinib, gemcitabine and cisplatin (cis-Pt) on various types of human cancers in models. Effect of treatments with vehicle (Control), temozolomide (TMZ, 80 mg/kg), Na-OHOD (OHOD, 600 mg/kg) and TMZ plus Na-OHOD (simultaneously at the same doses) for 60 days in immune-deprived mice infected with human brain cancer (SF767).
FIG. 8B. Effect of Na-OHOD (sodium salt of OHOD) and combinations with various pharmaceuticals: temozolomide (TMZ), erlotinib, gemcitabine and cisplatin (cis-Pt) on various types of human cancers in models. Idem, with Na-OHOD (OHOD, 600 mg/kg), erlotinib (Erlotinib, 40 mg/kg), cisplatin (cis-Pt, 100 mg/kg), plus erlotinib (OHO Er) or Na-OHOD plus cisplatin (OHO Pt) in nude mice infected with human lung cancer cells (A549).
FIG. 8C. Effect of Na-OHOD (sodium salt of OHOD) and combinations with various pharmaceuticals: temozolomide (TMZ), erlotinib, gemcitabine and cisplatin (cis-Pt) on various types of human cancers in models. Idem with Na-OHOD (OHOD, 600 mg/kg), Gemcitabine (Gemcitab, 40 mg/kg) or Na-OHOD plus Gemcitabine (OHO Gem) using the same doses in nude mice infected with human pancreas cancer cells (BXPC3). […]

[2] = tested on: MCF7; test: Effect of OHOD on cancer cells in culture (Table 2); format: cell-based, human; parameters: key: + [inhibition of growth]; ++ [total halt of growth]; +++ [total removal of tumour cells]; details: MCF7, Breast
Protocol: (§1) Also, a series of α-derivatives of cis-monounsaturated fatty acids were used to investigate their effectiveness in cancer treatment. Two types of experiment were performed. Firstly, the dependency of the anti-tumour effect on concentration was investigated. To perform these experiments, human lung cancer cells (A549) were cultivated in RPMI medium, supplemented with 10% foetal bovine […], 10 mM Hepes (pH 7.4), 2 mM glutamine, 2 g/l bicarbonate, 1 g/l glucose, 100 units/ml penicillin, 0.1 mg/ml streptomycin, 0.25 μg/ml Amphotericin B, at 37° C. and in the presence of 5% CO2. In a first experimental series, these cells were treated with various concentrations (0-400 μM) of OHOD and MOD11 and the number of cells was determined by flow cytometry (FIG. 3A). […] In a second series, the anti-tumour effectiveness on A549 lung cancer cells was investigated at a single concentration (150 μM) and a time of 48 hours (FIG. 3B). […] Obviously, among the previous molecules, some lacked both modifications on the α-carbon and the double bond in cis configuration (EO, HDO, ODO) and had no therapeutic effect.
(§2) In a second experimental series, designed to discover whether these molecules are effective in treatment of different types of tumours, the effect of OHOD at various concentrations on human cells of different types of cancer was studied. These experiments were performed as described before, except that the M220 and HT-29 cell lines were cultured in DMEM medium and the MDA-MB-231 line was incubated in Leibowitz L-15 medium supplemented with 15% foetal bovine […]. […] Where the nature of the tumour process requires, application can be topical (use on the skin of active products for the treatment of melanoma and other cutaneous abnormalities of cancerous nature), which can be considered as cosmetic treatments when attempts are made to correct aesthetic defects.

[3] = tested on: NCI-H460; test: as above; format: cell-based, human; parameters: key: + [inhibition of growth]; ++ [total halt of growth]; +++ [total removal of tumour cells]; details: NCI-H460, Lung (CPNM)
Protocol: as §1, §2

[4] = tested on: SF-268; test: as above; format: cell-based, human; parameters: key: + [inhibition of growth]; ++ [total halt of growth]; +++ [total removal of tumour cells]; details: SF-268, Glioma
Protocol: as §1, §2

[5] = tested on: lung cancer cells (A549); test: Culture plate invasion model, lung cancer cells (A549); format: cell-based, human; details: 50 μM and 100 μM, different times, vs untreated cells, p<0.05
Protocol: FIG. 5A. Invasive capacity of lung cancer cells (A549) in culture, in the absence (control, C) or presence of OHOD (2-hydroxy-9-cis-octadecenoic acid) at 50 μM (M50) and 100 μM (M100) and at different times.
FIG. 5B. Invasive capacity of lung cancer cells (A549) in culture, in the absence (control, C) or presence of OHOD (2-hydroxy-9-cis-octadecenoic acid) at 50 μM (M50) and 100 μM (M100) and at different times.
Furthermore, α-derivatives of cis-monounsaturated fatty acids are capable of inducing cadherin expression. Cadherin is a cellular adhesion protein. Cells expressing cadherin are often not displaced from their tissue location as they adhere to the surrounding cells. Tumour cells that lose the capacity to synthesise this protein can migrate from the tissue in which they were generated to other body tissues where they can develop a new tumour focus by the process known as metastasis. In treatments with α-derivatives of cis-monounsaturated the fatty acids, a significant increase in cadherin levels was observed (FIG. 4). The invasive capacity of cancer cells was also investigated in a culture plate invasion model. […] Then, an area of the culture dish is scraped and the number of cells invading this region at various times, in the presence and absence of the anti-metastasis compound is counted.

[6] = tested on: aortas of SHR rats; test: Contractile response induced by noradrenalin in isolated aorta, organ bath; parameters: species or system rat; details: aortas pre-treated 60 minutes in organ bath at 37° C., vs vehicle, p<0.05
Protocol: FIG. 11. Effect of OHOD on the contractile response induced by noradrenalin (NA) in aortas of SHR rats. The logarithm of NA is shown on the horizontal axis and the concentration (g) is shown on the vertical axis. The aortas were treated with OHOD (filled circles) or vehicle (empty circles) for 60 minutes in an organ bath at 37° C. in Ringer medium with oxygen.
Atherosclerosis or arteriosclerosis is a pathology characterised by the loss of contractility of blood vessels. This loss is associated with diverse factors, among which is the formation of deposits on the vascular lumen giving rise to the proliferation of vascular cells, reduction of blood flow and vasoconstrictor and vasodilator responses to neurotransmitters (such as noradrenalin) and to hormones. In studies in isolated rat aorta in organ bath, it was shown that the contraction power of the aortic muscle in response to noradrenalin increased very markedly after pre-treatments with OHOD acid. In addition, all the compounds with the structure of Formula I had similar effects on vascular muscle.

| SMILES | anti-tumour effectiveness of Na-OHOD alone vs temozolomide, erlotinib, gemcitabine, cisplatin [1] | Anti-tumour effect [2] | Anti-tumour effect [3] | Anti-tumour effect [4] | invasive capacity (number of invasive cells) [5] | contractile response induced by noradrenalin (NA) [6] |
| --- | --- | --- | --- | --- | --- | --- |
| CCCCCCCC/C=C\CCCCCCC(O)C(=O)[O-].[Na+] (stereo not drawn) [Na-OHOD] | more effective |  |  |  |  |  |
| CCCCCCCC/C=C\CCCCCCC(O)C(=O)O (stereo not drawn) [OHOD, α-Hydroxy-cis-Δ9-octadecenoic] |  | +++ | +++ | +++ | lower invasive capacity | much higher |
